In patent US20230085307A1, “PYRIDAZINONE COMPOUND AND HERBICIDE” (NISSAN CHEMICAL CORPORATION, priority 2019, published 2023):

Tests used:
late watergrass = experiment: Test Example 2: herbicidal activity, application during weed generation under submerged conditions (Table 17, symbol A); format: in vivo, late watergrass (Echinochloa oryzicola); conditions: AAH 320 g/ha; application during weed generation, submerged conditions
Procedure, shortened: (§1)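 In this pot test, flooded alluvial soil (water depth 4 cm) holds all three species sown as a mixture. Once seedlings have one to two leaves, the compound's emulsion, thinned with water to the intended dose, is poured on the water; grading follows after three weeks on the earlier criteria.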

Japanese bulrush = experiment: Test Example 2: herbicidal activity, application during weed generation under submerged conditions (Table 17, symbol B); format: in vivo, Japanese bulrush (Schoenoplectus juncoides); conditions: AAH 320 g/ha; application during weed generation, submerged conditions
Procedure, shortened: as §1

barnyard grass [1] = experiment: Test Example 3: herbicidal effect by foliage application, Wagner pot (Table 18, symbol H); format: in vivo, barnyard grass (Echinochloa crus-galli); conditions: for herbicidal effect on H (barnyard grass), rating 0-5: 320 g/ha
Procedure, shortened: (§2)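 Plants were sown in alluvial soil held under 0.1–0.5 cm standing water and grown 14 days in a greenhouse at 25–30 °C. An emulsifiable formulation, water-diluted to the set dose, was then sprayed onto the foliage, and effects were scored three weeks later using previously defined criteria.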

rice flat sedge = experiment: Test Example 3: herbicidal effect by foliage application, Wagner pot (Table 18, symbol E); format: in vivo, rice flat sedge (Cyperus iria); conditions: for herbicidal effect on E (rice flat sedge), rating 0-5: 320 g/ha
Procedure, shortened: as §2

southern crabgrass [2] = experiment: Test Example 4: herbicidal effect by soil treatment (Table 19, symbol F); format: in vivo, southern crabgrass (Digitaria ciliaris); conditions: for herbicidal effect rating, F: southern crabgrass: 320 g/ha
Procedure, shortened: (§3)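 Herbicidal effect was rated 3 weeks after treatment, using the scoring criteria of an earlier test. The compound, formulated as an emulsion and diluted in water to a set herbicide amount, had been sprayed uniformly on soil over freshly sown seeds. Growth took place in a greenhouse at 25° C. to 30° C.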

green foxtail = experiment: Test Example 4: herbicidal effect by soil treatment (Table 19, symbol G); format: in vivo, green foxtail (Setaria viridis); conditions: for herbicidal effect rating, G: green foxtail: 320 g/ha
Procedure, shortened: as §3

barnyard grass [3] = experiment: Test Example 4: herbicidal effect by soil treatment (Table 19, symbol H); format: in vivo, barnyard grass (Echinochloa crus-galli); conditions: for herbicidal effect rating, H: barnyard grass: 320 g/ha
Procedure, shortened: as §3

wild oat [4] = experiment: Test Example 4: herbicidal effect by soil treatment (Table 19, symbol I); format: in vivo, wild oat (Avena fatua); conditions: for herbicidal effect rating, I: wild oat: 320 g/ha
Procedure, shortened: as §3

Italian ryegrass [5] = experiment: Test Example 4: herbicidal effect by soil treatment (Table 19, symbol K); format: in vivo, Italian ryegrass (Lolium multiflorum); conditions: for herbicidal effect rating, K: Italian ryegrass: 320 g/ha
Procedure, shortened: as §3

velvetleaf = experiment: Test Example 4: herbicidal effect by soil treatment (Table 19, symbol M); format: in vivo, velvetleaf (Abutilon theophrasti); conditions: for herbicidal effect rating, M: velvetleaf: 320 g/ha
Procedure, shortened: as §3

redroot pigweed [6] = experiment: Test Example 4: herbicidal effect by soil treatment (Table 19, symbol N); format: in vivo, redroot pigweed (Amaranthus retroflexus); conditions: for herbicidal effect rating, N: redroot pigweed: 320 g/ha
Procedure, shortened: as §3

lambsquarters [7] = experiment: Test Example 4: herbicidal effect by soil treatment (Table 19, symbol O); format: in vivo, lambsquarters (Chenopodium album); conditions: for herbicidal effect rating, O: lambsquarters: 320 g/ha
Procedure, shortened: as §3

chickweed = experiment: Test Example 4: herbicidal effect by soil treatment (Table 19, symbol P); format: in vivo, common chickweed (Stellaria media); conditions: for herbicidal effect rating, P: chickweed: 320 g/ha
Procedure, shortened: as §3

southern crabgrass [8] = experiment: Test Example 5: herbicidal effect by foliage application, plastic box (Table 20, symbol F); format: in vivo, southern crabgrass (Digitaria ciliaris); conditions: foliage application, 320 g/ha, evaluated three weeks after application
Procedure, shortened: (§4)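 Foliar spray test: emulsion formulation diluted in water to a set application rate, sprayed onto 14-day-old plants raised in diluvial soil at 25° C to 30° C under glass. Both herbicidal effect and crop effect rated visually three weeks later.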

barnyard grass [9] = experiment: Test Example 5: herbicidal effect by foliage application, plastic box (Table 20, symbol H); format: in vivo, barnyard grass (Echinochloa crus-galli); conditions: foliage application, 320 g/ha, evaluated three weeks after application
Procedure, shortened: as §4

wild oat [10] = experiment: Test Example 5: herbicidal effect by foliage application, plastic box (Table 20, symbol I); format: in vivo, wild oat (Avena fatua); conditions: foliage application, 320 g/ha, evaluated three weeks after application
Procedure, shortened: as §4

blackgrass = experiment: Test Example 5: herbicidal effect by foliage application, plastic box (Table 20, symbol J); format: in vivo, blackgrass (Alopecurus myosuroides); conditions: foliage application, 320 g/ha, evaluated three weeks after application
Procedure, shortened: as §4

Italian ryegrass [11] = experiment: Test Example 5: herbicidal effect by foliage application, plastic box (Table 20, symbol K); format: in vivo, Italian ryegrass (Lolium multiflorum); conditions: foliage application, 320 g/ha, evaluated three weeks after application
Procedure, shortened: as §4

windgrass = experiment: Test Example 5: herbicidal effect by foliage application, plastic box (Table 20, symbol L); format: in vivo, windgrass (Apera spica-venti); conditions: foliage application, 320 g/ha, evaluated three weeks after application
Procedure, shortened: as §4

redroot pigweed [12] = experiment: Test Example 5: herbicidal effect by foliage application, plastic box (Table 20, symbol N); format: in vivo, redroot pigweed (Amaranthus retroflexus); conditions: foliage application, 320 g/ha, evaluated three weeks after application
Procedure, shortened: as §4

lambsquarters [13] = experiment: Test Example 5: herbicidal effect by foliage application, plastic box (Table 20, symbol O); format: in vivo, lambsquarters (Chenopodium album); conditions: foliage application, 320 g/ha, evaluated three weeks after application
Procedure, shortened: as §4

persian speedwell = experiment: Test Example 5: herbicidal effect by foliage application, plastic box (Table 20, symbol R); format: in vivo, Persian speedwell (Veronica persica); conditions: foliage application, 320 g/ha, evaluated three weeks after application
Procedure, shortened: as §4

[14] = amount of applied herbicide 320 g/ha

SMILES | herbicidal effect rating, A: late watergrass (late watergrass) | herbicidal effect rating, B: Japanese bulrush (Japanese bulrush) | herbicidal effect on H (barnyard grass), rating 0-5 (barnyard grass [1]) | herbicidal effect on E (rice flat sedge), rating 0-5 (rice flat sedge) | herbicidal effect rating, F: southern crabgrass (southern crabgrass [2]) | herbicidal effect rating, G: green foxtail (green foxtail) | herbicidal effect rating, H: barnyard grass (barnyard grass [3]) | herbicidal effect rating, I: wild oat (wild oat [4]) | herbicidal effect rating, K: Italian ryegrass (Italian ryegrass [5]) | herbicidal effect rating, M: velvetleaf (velvetleaf) | herbicidal effect rating, N: redroot pigweed (redroot pigweed [6]) | herbicidal effect on F: southern crabgrass (southern crabgrass [8]) | herbicidal effect on H: barnyard grass (barnyard grass [9]) | herbicidal effect on I: wild oat (wild oat [10]) | herbicidal effect on J: blackgrass (blackgrass) | herbicidal effect on K: Italian ryegrass (Italian ryegrass [11]) | herbicidal effect on L: windgrass (windgrass) | herbicidal effect on N: redroot pigweed (redroot pigweed [12]) | herbicidal effect on O: lambsquarters (lambsquarters [13]) | herbicidal effect on R: persian speedwell (persian speedwell) | also measured
CCCC(=O)Oc1c(C)nn(C)c(=O)c1-c1c(-c2ccc(F)cc2OCC)sc2ccc(F)cc12 [2-085] | 2 (Herbicidal rate of 20% or more and less than 40%) | 3 (Herbicidal rate of 40% or more and less than 70%) | 5 (Herbicidal rate of 90% or more (almost completely withered)) | 4 (Herbicidal rate of 70% or more and less than 90%) | 4 (Herbicidal rate of 70% or more and less than 90%) | 3 (Herbicidal rate of 40% or more and less than 70%) | 3 (Herbicidal rate of 40% or more and less than 70%) | 2 (Herbicidal rate of 20% or more and less than 40%) | 0 (Herbicidal rate of 5% or less (almost no effect)) | 0 (Herbicidal rate of 5% or less (almost no effect)) | 5 (Herbicidal rate of 90% or more (almost completely withered)) | 5 (Herbicidal rate of 90% or more (almost completely withered)) | 4 (Herbicidal rate of 70% or more and less than 90%) | 3 (Herbicidal rate of 40% or more and less than 70%) | 1 (Herbicidal rate of 5% or more and less than 20%) | 3 (Herbicidal rate of 40% or more and less than 70%) | 1 (Herbicidal rate of 5% or more and less than 20%) | 4 (Herbicidal rate of 70% or more and less than 90%) | 3 (Herbicidal rate of 40% or more and less than 70%) | 4 (Herbicidal rate of 70% or more and less than 90%) | herbicidal effect rating, O: lambsquarters (lambsquarters [7]): 3 (Herbicidal rate of 40% or more and less than 70%); herbicidal effect rating, P: chickweed (chickweed): 3 (Herbicidal rate of 40% or more and less than 70%)
Cc1nn(C)c(=O)c(-c2c(-c3ccc4c(c3)OCCO4)sc3ccc(F)cc23)c1O [2-092] | 0 (Herbicidal rate of 5% or less (almost no effect)) | 3 (Herbicidal rate of 40% or more and less than 70%) | 5 (Herbicidal rate of 90% or more (almost completely withered)) | 5 (Herbicidal rate of 90% or more (almost completely withered)) | 2 (Herbicidal rate of 20% or more and less than 40%) | 2 (Herbicidal rate of 20% or more and less than 40%) | 3 (Herbicidal rate of 40% or more and less than 70%) | 0 (Herbicidal rate of 5% or less (almost no effect)) | 1 (Herbicidal rate of 5% or more and less than 20%) | 5 (Herbicidal rate of 90% or more (almost completely withered)) | 4 (Herbicidal rate of 70% or more and less than 90%) | 4 (Herbicidal rate of 70% or more and less than 90%) | 5 (Herbicidal rate of 90% or more (almost completely withered)) | 3 (Herbicidal rate of 40% or more and less than 70%) | 4 (Herbicidal rate of 70% or more and less than 90%) | 4 (Herbicidal rate of 70% or more and less than 90%) | 4 (Herbicidal rate of 70% or more and less than 90%) | 5 (Herbicidal rate of 90% or more (almost completely withered)) | 5 (Herbicidal rate of 90% or more (almost completely withered)) | 5 (Herbicidal rate of 90% or more (almost completely withered)) | herbicidal effect rating, O: lambsquarters (lambsquarters [7]): 5 (Herbicidal rate of 90% or more (almost completely withered)); herbicidal effect rating, P: chickweed (chickweed): 4 (Herbicidal rate of 70% or more and less than 90%)
Cc1nn(C)c(=O)c(-c2c(-c3ccc(C(F)(F)F)cc3)sc3ccc(Cl)cc23)c1O [2-111] | 2 (Herbicidal rate of 20% or more and less than 40%) | 1 (Herbicidal rate of 5% or more and less than 20%) |  |  |  |  |  |  |  |  |  | 0 (Herbicidal rate of 5% or less (almost no effect)) | 4 (Herbicidal rate of 70% or more and less than 90%) | 0 (Herbicidal rate of 5% or less (almost no effect)) | 5 (Herbicidal rate of 90% or more (almost completely withered)) | 3 (Herbicidal rate of 40% or more and less than 70%) | 5 (Herbicidal rate of 90% or more (almost completely withered)) | 5 (Herbicidal rate of 90% or more (almost completely withered)) | 3 (Herbicidal rate of 40% or more and less than 70%) | 5 (Herbicidal rate of 90% or more (almost completely withered)) | herbicidal effect on H: barnyard grass (barnyard grass [1]; [14]): 4 (Herbicidal rate of 70% or more and less than 90%); herbicidal effect on E: rice flat sedge (rice flat sedge; [14]): 3 (Herbicidal rate of 40% or more and less than 70%); F: southern crabgrass, herbicidal effect rating (southern crabgrass [2]; [14]): 0 (Herbicidal rate of 5% or less (almost no effect)); G: green foxtail, herbicidal effect rating (green foxtail; [14]): 0 (Herbicidal rate of 5% or less (almost no effect)); H: barnyard grass, herbicidal effect rating (barnyard grass [3]; [14]): 0 (Herbicidal rate of 5% or less (almost no effect)); I: wild oat, herbicidal effect rating (wild oat [4]; [14]): 0 (Herbicidal rate of 5% or less (almost no effect)); K: Italian ryegrass, herbicidal effect rating (Italian ryegrass [5]; [14]): 3 (Herbicidal rate of 40% or more and less than 70%); M: velvetleaf, herbicidal effect rating (velvetleaf; [14]): 0 (Herbicidal rate of 5% or less (almost no effect)); N: redroot pigweed, herbicidal effect rating (redroot pigweed [6]; [14]): 5 (Herbicidal rate of 90% or more (almost completely withered)); O: lambsquarters, herbicidal effect rating (lambsquarters [7]; [14]): 4 (Herbicidal rate of 70% or more and less than 90%); P: chickweed, herbicidal effect rating (chickweed; [14]): 0 (Herbicidal rate of 5% or less (almost no effect))
